The results in this text go back to US20170298060A1, “PYRROLOPYRIDINE RETINOIC ACID RECEPTOR-RELATED ORPHAN RECEPTOR MODULATORS AND USES THEREOF” (INNOV17 LLC, priority 2016, published 2017).

For one assay, the system named is IL-17F. Briefly: Human TH17 cytokine inhibition as measured by ELISA (IL-17F). The class given is cell-based. As to conditions: 72 h; human CD4+ T cells under TH17-polarizing conditions, 3 days, supernatant ELISA, 0.1% DMSO. The protocol:
(§1) Human TH17 Cytokine Inhibition as Measured by ELISA
(§2) Peripheral blood mononuclear cells (PBMCs) were sourced from freshly prepared leukocyte enriched plasma (buffy coat) from healthy donors (New York Blood Center). PBMCs were isolated by density gradient centrifugation using Ficoll-Paque™ PLUS (GE Healthcare). Human CD4+ T cells were seeded into 96-well plates (5×10^4 cells/well) and activated with plate-bound anti-human (h)-CD3 antibody and soluble h-aCD28 (both at 1 ug/ml; eBioscience) and differentiated into TH17 cells with 20 ng/mL h-IL-6, 5 ng/mL h-TGF-β1, 10 ng/mL h-IL-23 (eBioscience) and 10 ng/mL IL-1β (Miltenyi Biotec) in serum-free TexMACS Medium (Miltenyi Biotec) supplemented with 1% Penicillin/Streptomycin (Lonza) for 3 days. CD4+ T cells propagated under TH17-polarizing conditions were cultured in the presence or absence of various concentrations of compounds with a final concentration of 0.1% DMSO. Supernatants were collected and stored at −20° C. until assayed for IL-17A and IL-17F levels by “Ready-Set-Go” ELISA kits (eBioscience) as per manufacturer's instructions. Endpoint absorbance was read at 450 nm using a microplate reader (Perkin Elmer).

The test system of a further assay is IL-17A. Briefly: Human TH17 cytokine inhibition as measured by ELISA (IL-17A). As to conditions: 72 h; human CD4+ T cells under TH17-polarizing conditions, 3 days, supernatant ELISA, 0.1% DMSO. The class given is cell-based. The protocol:
as §1, §2

Regarding `O=S(=O)(CCc1ccccc1)N1CCC(Cn2ccc3cc(-c4cn[nH]c4)ncc32)CC1` [Example 5, 1-((1-(phenethylsulfonyl)piperidin-4-yl)methyl)-5-(1H-pyrazol-4-yl)-1H-pyrrolo[2,3-c]pyridine], the IC50 in the assay on IL-17F and in the assay on IL-17A was less than 10 µM each time.
Consider `O=C(c1ccccc1)N1CCC(Cn2ccc3cc(-c4cn[nH]c4)cnc32)CC1` [Example 9, (4-((5-(1H-pyrazol-4-yl)-1H-pyrrolo[2,3-b]pyridin-1-yl)methyl)piperidin-1-yl)(phenyl)methanone], for which the IC50 in the assay with IL-17F and in the assay on IL-17A was less than 10 µM in each case.
For the compound `O=S(=O)(c1ccccc1)N1CCC(Cn2ccc3cc(-c4cn[nH]c4)cnc32)CC1` [Example 15, 1-((1-(phenylsulfonyl)piperidin-4-yl)methyl)-5-(1H-pyrazol-4-yl)-1H-pyrrolo[2,3-b]pyridine], the IC50 in the assay on IL-17F and in the assay on IL-17A was less than 10 µM in each case.
In the case of `O=C(CCc1ccccc1)N1CCC(Cn2ccc3cc(-c4cn[nH]c4)cnc32)CC1` [Example 10, 1-(4-((5-(1H-pyrazol-4-yl)-1H-pyrrolo[2,3-b]pyridin-1-yl)methyl)piperidin-1-yl)-3-phenylpropan-1-one], the IC50 with IL-17F and in the assay with IL-17A was less than 10 µM each time.
With `O=S(=O)(c1ccccc1F)N1CCC(Cn2ccc3cc(-c4cn[nH]c4)cnc32)CC1` [Example 16, 1-((1-((2-fluorophenyl)sulfonyl)piperidin-4-yl)methyl)-5-(1H-pyrazol-4-yl)-1H-pyrrolo[2,3-b]pyridine], the IC50 in the assay with IL-17F and in the assay on IL-17A was less than 10 µM each time.
For the compound `O=S(=O)(c1ccccc1)N1CCC(Cn2ccc3cc(-c4cn[nH]c4)ncc32)CC1` [Example 7, 1-((1-(phenylsulfonyl)piperidin-4-yl)methyl)-5-(1H-pyrazol-4-yl)-1H-pyrrolo[2,3-c]pyridine], the IC50 with IL-17F and with IL-17A was less than 10 µM throughout.
`O=S(=O)(c1ccccc1F)N1CCC(Cn2ccc3cc(-c4cn[nH]c4)ncc32)CC1` [Example 8, 1-((1-((2-fluorophenyl)sulfonyl)piperidin-4-yl)methyl)-5-(1H-pyrazol-4-yl)-1H-pyrrolo[2,3-c]pyridine]: the IC50 with IL-17F and with IL-17A was less than 10 µM in each case.
With `O=C(c1ccccc1F)N1CCC(Cn2ccc3cc(-c4cn[nH]c4)ncc32)CC1` [Example 4, (4-((5-(1H-pyrazol-4-yl)-1H-pyrrolo[2,3-c]pyridin-1-yl)methyl)piperidin-1-yl)(2-fluorophenyl)methanone], the IC50 with IL-17F and in the assay with IL-17A was less than 10 µM throughout.
As for `O=C(c1ccccc1)N1CCC(Cn2ccc3cc(-c4cn[nH]c4)ncc32)CC1` [Example 1, (4-((5-(1H-pyrazol-4-yl)-1H-pyrrolo[2,3-c]pyridin-1-yl)methyl)piperidin-1-yl)(phenyl)methanone], the IC50 with IL-17F and with IL-17A was less than 10 µM in each case.
As for `O=S(=O)(CCc1ccccc1)N1CCC(Cn2ccc3cc(-c4cn[nH]c4)cnc32)CC1` [Example 13, 1-((1-(phenethylsulfonyl)piperidin-4-yl)methyl)-5-(1H-pyrazol-4-yl)-1H-pyrrolo[2,3-b]pyridine], the IC50 in the assay on IL-17F and in the assay with IL-17A was less than 10 µM each time.
With `CC(C)CC(=O)N1CCC(Cn2ccc3cc(-c4cn[nH]c4)cnc32)CC1` [Example 11, 1-(4-((5-(1H-pyrazol-4-yl)-1H-pyrrolo[2,3-b]pyridin-1-yl)methyl)piperidin-1-yl)-3-methylbutan-1-one], the IC50 in the assay with IL-17F and with IL-17A was less than 10 µM in each case.
Take `O=C(c1ccccc1F)N1CCC(Cn2ccc3cc(-c4cn[nH]c4)cnc32)CC1` [Example 12, (4-((5-(1H-pyrazol-4-yl)-1H-pyrrolo[2,3-b]pyridin-1-yl)methyl)piperidin-1-yl)(2-fluorophenyl)methanone]: the IC50 with IL-17F and with IL-17A was less than 10 µM in each case.
For `CC(C)CS(=O)(=O)N1CCC(Cn2ccc3cc(-c4cn[nH]c4)cnc32)CC1` [Example 14, 1-((1-(isobutylsulfonyl)piperidin-4-yl)methyl)-5-(1H-pyrazol-4-yl)-1H-pyrrolo[2,3-b]pyridine], the IC50 in the assay on IL-17F and in the assay on IL-17A was less than 10 µM each time.
As for `CC(C)CC(=O)N1CCC(Cn2ccc3cc(-c4cn[nH]c4)ncc32)CC1` [Example 3], the IC50 in the assay on IL-17F and with IL-17A was less than 10 µM throughout.
For `CC(C)CS(=O)(=O)N1CCC(Cn2ccc3cc(-c4cn[nH]c4)ncc32)CC1` [Example 6, 1-((1-(isobutylsulfonyl)piperidin-4-yl)methyl)-5-(1H-pyrazol-4-yl)-1H-pyrrolo[2,3-c]pyridine], the IC50 with IL-17F and with IL-17A was less than 10 µM throughout.
